As a reminder, the IC50 is the concentration that inhibits the measured activity by half.

Among the data in patent publication US20240374579A1, “BICYCLIC PGDH INHIBITORS AND METHODS OF MAKING AND USING” (EPIRIUM BIO INC., priority 2021, published 2024) are IC50 and fold induction values, retold here.

The target of experiment [1] is T1, 15-PGDH/HPGD (Homo sapiens, UniProt P15428).
T1 construct: purchased R&D System 5660-DH
T1 sequence (P15428 1-266): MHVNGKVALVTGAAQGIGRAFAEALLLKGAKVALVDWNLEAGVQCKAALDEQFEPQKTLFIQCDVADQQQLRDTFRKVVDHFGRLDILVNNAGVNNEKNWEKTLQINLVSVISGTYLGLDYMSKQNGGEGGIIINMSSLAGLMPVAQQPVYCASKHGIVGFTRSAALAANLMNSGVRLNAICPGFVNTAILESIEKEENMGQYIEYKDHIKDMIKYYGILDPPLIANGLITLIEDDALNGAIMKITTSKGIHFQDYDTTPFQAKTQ
In words: hPGDH inhibitor screening biochemical assay. Conditions: 10 nM enzyme, 15 μM PGE2, 0.25 mM NAD, fluorescence ex/em 340/485 nm. The procedure:
A hydroxyprostaglandin dehydrogenase inhibition screening biochemical assay can be performed to assess the synthesized inhibitors provided herein. Provided herein is an exemplary biochemical assay for hPGDH inhibitor screening.
The in vitro biochemical assay can be performed in white, 384 plates in total 20 μl reaction volume consisting of 10 nM of 15-PGDH/HPGD (R&D System #5660-DH), 15 μM Prostaglandin E2 (Sigma, Cat #P5640-10MG) and 0.25 mM β-Nicotinamide adenine dinucleotide sodium salt (Sigma, Cat #N0632-5G) made in reaction buffer (50 mM Tris-HCl, pH 7.5, 0.01% Tween 20) at 10-point dose response curve for test/tool compounds. Briefly, 5 μl (4×) of compounds solution and 5 μl (final concentration, 10 nM) of enzyme solution is added to white 384 well plates and incubated for 10 mins at 37° C. 5 μl (4×) of Prostaglandin E2 and 5 μl (4×) of β-Nicotinamide adenine dinucleotide sodium salt is added to the wells and incubated for 10 mins at room temperature. Fluorescence is recorded at ex/em=340 nm/485 nm. The percentage ([…]) inhibition of enzyme activity was determined relative to positive control (1% DMSO) and IC50 was calculated using GraphPad prism software (four parameter-variable slope equation).

In experiment [2] the target is T2, 15-PGDH (Homo sapiens, UniProt P15428).
T2 construct: endogenous in cells; host or cells: A549 human lung adenocarcinoma cells
T2 sequence (P15428 1-266): T1 sequence (P15428 1-266)
In words: A549 cell based assay: PGE2 in supernatant (HTRF), fold induction over IL-1β. The settings on record: A549 cells; for fold induction at 0.001 µM: compound 0.001 μM plus IL-1β versus IL-1β only, read-out: PGE2-HTRF over IL1-β: Fold induction at 0.001 μM; for fold induction at 0.01 µM: compound 0.01 μM plus IL-1β versus IL-1β only, read-out: PGE2-HTRF over IL1-β: Fold induction at 0.01 μM; for fold induction at 0.1 µM: compound 0.1 μM plus IL-1β versus IL-1β only, read-out: PGE2-HTRF over IL1-β: Fold induction at 0.1 μM; for fold induction at 1 µM: compound 1 μM plus IL-1β versus IL-1β only, read-out: PGE2-HTRF over IL1-β: Fold induction at 1 μM. The procedure: Cell Based Assay: 15-PGDH is highly expressed in resting human lung adenocarcinoma cells (A549) (Tong et al., 2006), and this cell line was used to assess 15-PGDH inhibition by MF-300Na in vitro.
In this assay, A549 cells are treated with interleukin (IL) 1β, which induces the expression of cycloxygenase-2 and the synthesis of PGE2 (Tong et al., 2006). In the studies evaluating test articles, thirty thousand A549 cells were seeded in 100 μL F12K completed media and incubated for 24 hours at 37° C. with 5% CO2 before being serum-starved for 24 hours. On the day of the experiment, buffer was changed to complete medium, and cells were incubated for 30 minutes with compounds prior to the addition of IL-1β (final concentration of 0.1-0.25 ng/mL) overnight at 37° C. with 5% CO2. Each concentration was run in triplicate. […] The PGE2 in the supernatant was detected and quantified using a Cisbio HTRF technology (Homogeneous Time-Resolved Fluorescence) kit (62P2APEG-62P2APEH) according to the manufacturer's recommendations, quantifying the fold induction of PGE2 of cells treated with IL-1b plus test article, versus treatment with IL-1b only.
(In TR-FRET formats the signal depends on donor and acceptor labels being close together.)

A value given as a limit tells only on which side of the number the result lay.

`C[C@H]1CCCN(C(=O)c2cnc3c(cnn3-c3ccc4nc(N)nn4c3)c2)C1` [Compound C-27] gave an IC50 in experiment [1] of less than 100 nM. In addition, in experiment [2], the fold induction at 0.001 µM came to 1.04, the fold induction at 0.01 µM was 2.06, the fold induction at 0.1 µM was found to be 3.36 and the fold induction at 1 µM is 4.68.

Turning to `C[C@H]1CCCN(C(=O)c2cnc3c(cnn3-c3ccc(N4CCNC4=O)nc3)c2)C1` [Compound C-57], the IC50 in experiment [1] was less than 100 nM. In experiment [2], the fold induction at 0.001 µM stood at 4.07, the fold induction at 0.01 µM was found to be 4.94, the fold induction at 0.1 µM is 4.94 and the fold induction at 1 µM is 4.86.

As for `CCOc1ccc(-n2nnc3cc(C(=O)N4CCC[C@H](C)C4)cnc32)cc1` [Compound C-30], in experiment [2], the fold induction at 0.001 µM came to 1.16, the fold induction at 0.01 µM is 1.68, the fold induction at 0.1 µM was 2.5 and the fold induction at 1 µM came out at 3.79.

In turn, `C[C@H]1CCCN(C(=O)c2cnc3c(cnn3-c3ccc(N4CCOC4=O)nc3)c2)C1` [Compound C-25] had a half-maximal inhibitory concentration (IC50) in experiment [1] of less than 100 nM. In experiment [2], the fold induction at 0.001 µM is 2.08, the fold induction at 0.01 µM turned out to be 3.56, the fold induction at 0.1 µM came to 4.84 and the fold induction at 1 µM came to 6.39.

Turning to `C[C@H]1CCCN(C(=O)c2cnc3c(c2)nnn3-c2ccc(-c3nnc[nH]3)cc2)C1` [Compound C-19], the IC50 in experiment [1] is less than 100 nM. Further, in experiment [2], the fold induction at 0.001 µM stood at 1.11, the fold induction at 0.01 µM amounted to 1.81, the fold induction at 0.1 µM worked out at 3.61 and the fold induction at 1 µM was 4.5.

As to `Cc1nc(-c2ccc(-n3nnc4cc(C(=O)N5CCC[C@H](C)C5)cnc43)cc2)no1` [Compound C-29], in experiment [2], the fold induction at 0.001 µM came to 3.78, the fold induction at 0.01 µM was determined as 4.08, the fold induction at 0.1 µM came out at 6.4 and the fold induction at 1 µM was 4.88.

In the case of `O=C(c1cnc2c(cnn2-c2cncc(N3CCOCC3)c2)c1)N1CCC(F)(F)CC1` [Compound C-28], in experiment [2], the fold induction at 0.001 µM was determined as 1.04, the fold induction at 0.01 µM is 0.76, the fold induction at 0.1 µM was 2.06 and the fold induction at 1 µM worked out at 3.61.

In the case of `O=C(c1cnc2c(cnn2-c2ccc(-c3nnc[nH]3)cc2)c1)N1CCCC(F)(F)C1` [Compound C-59], in experiment [2], the fold induction at 0.001 µM turned out to be 0.91, the fold induction at 0.01 µM came out at 3.09, the fold induction at 0.1 µM is 4.74 and the fold induction at 1 µM was 4.32.

In experiment [1], `O=C(c1ccc2c(c1)nnn2-c1ccc(-c2ncn[nH]2)nc1)N1CCC(F)(F)CC1` [Compound C-9, (1-(6-(1H-1,2,4-triazol-5-yl)pyridin-3-yl)-1H-benzo[d][1,2,3]triazol-5-yl) (4,4-difluoropiperidin-1-yl)methanone] yielded an IC50 of 100 to 1000 nM.

The molecule `O=C(c1cnc2c(cnn2-c2ccc(-c3nnc[nH]3)c(Cl)c2)c1)N1CCSCC1` [Compound C-68] yielded an IC50 in experiment [1] of less than 100 nM.

On to `O=C(c1cnc2c(cnn2-c2ccc(-c3nnc[nH]3)c(Cl)c2)c1)N1CC[S+]([O-])CC1` [Compound C-70], for which the IC50 in experiment [1] fell in the range of 100 to 1000 nM.

Consider `C[C@H]1CCCN(C(=O)c2cnc3c(cnn3-c3ccc(N4CCOCC4)nc3)c2)C1` [Compound C-26], for which, in experiment [2], the fold induction at 0.001 µM stood at 1.05, the fold induction at 0.01 µM is 1.31, the fold induction at 0.1 µM came to 1.8 and the fold induction at 1 µM was 3.45.

Regarding `O=C(c1cnc2c(cnn2-c2ccc(-c3ncn[nH]3)cc2)c1)N1CCC(F)(F)CC1` [Compound C-6], the IC50 in experiment [1] is less than 100 nM. Besides, in experiment [2], the fold induction at 0.001 µM came out at 0.98, the fold induction at 0.01 µM worked out at 2.14, the fold induction at 0.1 µM stood at 5.31 and the fold induction at 1 µM is 4.88.

`CCO[C@H]1CCN(C(=O)c2cnc3c(cnn3-c3ccc(-c4nnc[nH]4)cc3)c2)C1` [Compound C-43] had an IC50 in experiment [1] of 100 to 1000 nM.

For `CC(F)(F)[C@H]1CCN(C(=O)c2cnc3c(cnn3-c3ccc(-c4nnc[nH]4)cc3)c2)C1` [Compound C-61], in experiment [1], the IC50 was less than 100 nM.

As to `O=C(O)c1ccc(-n2nnc3cc(C(=O)N4CCC(F)(F)CC4)ccc32)cc1` [Compound C-11, 4-(5-(4,4-difluoropiperidine-1-carbonyl)-1H-benzo[d][1,2,3]triazol-1-yl) benzoic acid], the IC50 in experiment [1] is 100 to 1000 nM.

With `CCCC[S+]([O-])c1cnc2c(cnn2-c2cccc(-c3nnc[nH]3)c2)c1` (centres unmarked) [Compound C-92], in experiment [1], the IC50 was 100 to 1000 nM.

In turn, `C[C@H]1CCN(C(=O)c2cnc3c(cnn3-c3ccc(-c4nnc[nH]4)nc3)c2)C1` [Compound C-21] had an IC50 in experiment [1] of less than 100 nM.

In experiment [1], `O=C(c1ccc2c(c1)ncn2-c1ccc(-c2ncn[nH]2)nc1)N1CCC(F)(F)CC1` [Compound C-15, (1-(6-(1H-1,2,4-triazol-5-yl)pyridin-3-yl)-1H-benzo[d]imidazol-5-yl)(4,4-difluoropiperidin-1-yl)methanone] gave an IC50 of 100 to 1000 nM.

For `O=C(O)c1ccc(-n2nnc3cc(C(=O)N4CCC(F)(F)CC4)cnc32)cc1` [Compound C-1, 4-(6-(4,4-difluoropiperidine-1-carbonyl)-3H-[1,2,3]triazolo[4,5-b]pyridin-3-yl)benzoic acid], the IC50 in experiment [1] was less than 100 nM.

For the molecule `COCC(=O)Nc1cncc(-n2ncc3cc([S+]([O-])C4CCC(F)(F)CC4)cnc32)c1` (centres unmarked) [Compound C-124], the IC50 in experiment [1] is less than 100 nM.
